The values below come from patent US11844777B2, “Methods of treating autoimmune microvascular disorders” (PRIMUS PHARMACEUTICALS, INC., priority 2017, dated 2023).

For data set [1], the system named is streptozotocin-induced diabetic hamster cheek pouch. The settings on record: cited from earlier work.
In a further data set the test system is rabbit ear veins. The settings on record: 300 mg/kg/d from 7 days before to 4 days after sclerotherapy; p<0.001; cited from earlier work.
The subject of another data set is digital ulcers. In words: randomized, double blind, placebo controlled clinical trial of diosmin on digital ulcers. Format: in vivo, human. The protocol:
To evaluate the effect of diosmin on Raynaud's and digital ulcers, a randomized, double blind, placebo controlled clinical trial was conducted. In this trial, subjects were randomized to receive either 600 mg of diosmin or matching placebo twice daily. The trial recorded improvement/healing of ulcers. Subjects with ulcers who were not on active ulcer therapy were required to have at least one stable or worsening digital ulcer for at least one month and subjects receiving ulcer therapy were required to have at least one stable or worsening ulcer on stable therapy for at least two months and therapy was required to remain constant for the duration of the trial.

Data set [2] deals with leukocyte and endothelial cell adhesion molecules. The settings on record: variety of ischemia/reperfusion models; cited from earlier work.
The next data set deals with hamster cheek pouch. The settings on record: pretreatment with 2, 20, 80 and 160 mg/kg/d; ischemia/reperfusion; cited from earlier work.
The conditions of data set [3]: cited from earlier work.

In the case of `COc1ccc(-c2cc(=O)c3c(O)cc(O[C@@H]4O[C@H](CO[C@@H]5O[C@@H](C)[C@H](O)[C@@H](O)[C@H]5O)[C@@H](O)[C@H](O)[C@H]4O)cc3o2)cc1O` [diosmin, (7-[[6-O-(6-Deoxy-α-L-mannopyranosyl)-β-D-glucopyranosyl]oxy]-5-hydroxy-2-(3-hydroxy-4-methoxyphenyl)-4H-1-benzopyran-4-one)], the “number of leukocytes adhering to the endothelium after reperfusion” value in data set [1] (after reperfusion following 30 minutes of ischemia) was “deceased as did the number of leukocytes adhering to the endothelium”. Also, the “number of capillary leaks induced by each of the test articles, bradykinin, and LTB4” value in data set [1] (pretreatment with diosmin, diabetic hamster cheek pouch) was “significantly reduced”. In addition, in the data set on rabbit ear veins, the functional capillary density result is “preserved”; the “increase in venous and arteriolar diameter” value is given as “prevented”; the “number of adherent leukocytes” value is on record as “reduced”; the “number of capillary leakage sites” value is “reduced”. In addition, the perivenous edema result with rabbit ear veins is given as “reduced”. Moreover, the “Number of New Ulcers Appearing between Baseline and Week 4” value in the data set with digital ulcers (600 mg diosmin twice daily, Week 4, all digital ulcers (including 9 ulcers in 4 non-scleroderma subjects)) is on record as 14. In addition, in the data set on digital ulcers (600 mg twice daily, Week 4, healed/total ulcers, p 0.1251 vs placebo), the “Number of Ulcers Healed at Week 4 Relative to Baseline” value is recorded as 18/43. Also, the “Number with >= 50% Improvement at Week 4 Relative to Baseline” value in the data set with digital ulcers (600 mg twice daily, Week 4, improved/total ulcers, p 0.0905 vs placebo) is reported as 23/43. In addition, the “% with >= 50% Improvement at Week 4 Relative to Baseline” value with digital ulcers (600 mg twice daily, Week 4, p 0.0905 vs placebo) is listed as “(53.5%)”. Further, the “% of Ulcers Healed at Week 4 Relative to Baseline” value with digital ulcers (600 mg twice daily, Week 4, p 0.1251 vs placebo) is “(41.9%)”. For the same compound, in the data set on digital ulcers (600 mg twice daily, Week 8, healed/total ulcers, p 0.0113 vs placebo), the “Number of Ulcers Healed at Week 8 Relative to Baseline” value is recorded as 31/42. The “Number of Ulcers Healed at Week 8 Relative to Week 4” value with digital ulcers (600 mg twice daily, Week 8, healed/total ulcers, p 0.0600 vs placebo) is reported as 18/37. Besides, the “Number with >= 50% Improvement at Week 8 Relative to Baseline” value in the data set on digital ulcers (600 mg twice daily, Week 8, improved/total ulcers, p 0.0018 vs placebo) is given as 39/42. Also, the “Number with >= 50% Improvement at Week 8 Relative to Week 4” value with digital ulcers (600 mg twice daily, Week 8, improved/total ulcers, p 0.0207 vs placebo) is 25/37. The “% with >= 50% Improvement at Week 8 Relative to Baseline” value with digital ulcers (600 mg twice daily, Week 8, p 0.0018 vs placebo) is recorded as “(92.9%)”. In addition, the “% of Ulcers Healed at Week 8 Relative to Baseline” value in the data set with digital ulcers (600 mg twice daily, Week 8, p 0.0113 vs placebo) is on record as “(73.8%)”. In addition, in the data set with digital ulcers (600 mg twice daily, Week 8, p 0.0207 vs placebo), the “% with >= 50% Improvement at Week 8 Relative to Week 4” value is listed as “(67.6%)”. Further, the “% of Ulcers Healed at Week 8 Relative to Week 4” value with digital ulcers (600 mg twice daily, Week 8, p 0.0600 vs placebo) was “(48.6%)”. Also, in data set [2], the “overexpression of leukocyte and endothelial cell adhesion molecules” value is recorded as “inhibit”. For the same compound, the “arteriolar vasodilation, reduction in flow velocity and decrease in functional capillary density” value in the data set with hamster cheek pouch is reported as “reversed all these changes towards normal in a dose dependent manner”. Also, the “form found in blood after oral ingestion” value in data set [3] is on record as “Diosmetin”.
